Data set [1] deals with T1, Ang-(1–7) peptidase purified from sheep brain medulla (Ovis aries, UniProt A0ACI6RWG7). Description: Inhibitor profile of 125I-Ang-. The class given is biochemical. As to conditions: cocktail; for effect of inhibitor on peptidase activity (in words): enriched medullary peptidase, 60 min, 37°C.
Data set [2] deals with Ang-(1–7) peptidase activity in CSF (Ovis aries, UniProt A0ACI6RWG7). As to the kind of experiment: Inhibitor profile of 125I-Ang-. As to conditions: CSF 25 µl, cocktail, 60 min, 37°C. The class given is biochemical, sheep.
Data set [3] addresses T1, Ang-(1–7) peptidase purified from sheep brain medulla.
The subject of a further data set is ACE. The settings on record: read-out: reported IC50; ref Doulut et al. 1993; cited from earlier work.

Data on 8 molecules can be found in paper PMC4137327 (Journal of neurochemistry, 2014).

Entries after “also recorded” stand apart in the source; their conditions may differ. Like-named read-outs stand apart in the source and are kept apart here. Ends that are not written are not given here.

Consider aprotinin, for which the “effect of inhibitor on peptidase activity (in words)” value (“effect of inhibitor” for short) in data set [1] (inhibitor 80 µM) is reported as “insensitive”. Besides, the “Inhibitor Sensitivity (% of control)” value in data set [2] (inhibitor 80 µM) is 100 % of control. Take `O=S(=O)(F)Cc1ccccc1` [PMSF, phenylmethylsulfonyl fluoride]: in data set [1] (inhibitor 100 µM, N=3), the “effect of inhibitor” value is “insensitive; also recorded: did not inhibit activity”. In the case of `CC[C@H](C)[C@H](NC(=O)[C@H](Cc1ccc(O)cc1)NC(=O)[C@@H](NC(=O)[C@H](CCCNC(=N)N)NC(=O)[C@@H](N)CC(=O)O)C(C)C)C(=O)N[C@@H](Cc1cnc[nH]1)C(=O)N1CCC[C@H]1C(=O)N[C@@H](Cc1ccccc1)C(=O)O` [Ang II], in data set [3] (HPLC analysis, unlabeled peptide 0.4 mM, 24 hours, 37°C), the “hydrolysis of unlabeled peptide by the peptidase” value was < 5%. As to `c1cnc2c(c1)ccc1cccnc12` [o-phenanthroline], in data set [1] (inhibitor 1 mM, N=3), the “effect of inhibitor” value is reported as “abolished peptidase activity; also recorded: sensitive”.

`O[C@@H](CS)[C@@H](O)CS` (racemic) [DTT, dithiothreitol]: the “effect of inhibitor” value in data set [1] (inhibitor 5 mM, N=3) is on record as “partial inhibition”.

In the case of DRVYIHPFHL [Ang I], in data set [3] (sheep, purified brain medulla peptidase, 24 h, 400 µM), the “hydrolysis of unlabeled peptide by the peptidase” value is reported as < 5%. As usually defined, the IC50 is the concentration needed to halve the response being measured. With `CC(C)C[C@H](NC(=O)[C@@H](CC(=O)NO)Cc1ccccc1)C(=O)O` [JMV-390, N-[3-[(hydroxyamino)carbonyl]-1-oxo-2(R)-benzylpropyl]-L-leucine], the “effect on the Ang-(1–4) peak (in words)” value in data set [1] (1 nM JMV-390, purified enzyme) was “reduced the Ang-(1–4) peak”. Besides, in data set [1] (100 nM JMV-390, purified enzyme), the “effect on peptidase activity (in words)” value was “essentially abolished activity”. Moreover, the “effect on the peak of Ang-(1–4) from unlabeled Ang-(1–7) (in words)” value in data set [3] (10 µM JMV-390, Ang-(1–7) 400 µM, 24 hours, 37°C (Figure 6B)) was “abolished”. Moreover, in the data set on ACE, the IC50 was 70 µM.

B1: soybean trypsin inhibitor (protein, UniProt P01070 25-205, looked up)
Trypsin inhibitor A: DFVLDNEGNPLENGGTYYILSDITAFGGIRAAPTGNERCPLTVVQSRNELDKGIGTIISSPYRIRFIAEGHPLSLKFDSFAVIMLCVGIPTEWSVVEDLPEGPAVKIGENKDAMDGWFRLERVSDDEFNNYKLVFCPQQAEDDKCGDIGISIDHDDGTRRLVVSKNKPLVVQFQKLDKESL
B1: the “effect of inhibitor” value in data set [1] (inhibitor 100 µM, N=3) is “insensitive”. Also, the “Inhibitor Sensitivity (% of control)” value in data set [2] (inhibitor 100 µM, mean ± SEM) is listed as 101 ± 2 % of control.
